# Assay results: patent EP2835640A1, “Method for predicting the skin sensitizing activity of a compound” (Academisch Ziekenhuis Leiden HODN Leids Universitair …, priority 2013, dated 2015)
# Residues, ends and D or L forms follow the SMILES beside them. *: point of attachment. Cbz = O=C(OCc1ccccc1)*
# How the values were obtained:
# Monolayer keratinocytes = assay: WST-1 cell viability assay, monolayers; assay type: cell-based, human; settings: WST-1, 24 h of treatment
# Experimental: Cell viability of monolayers was measured using WST-1 assay (Roche diagnostics, Mannheim, Germany). Briefly, cells were seeded in 96-well flat-bottom plates (Greiner Bio-One, Frickenhausen, Germany) in 100 µl of culture medium 24-48 h prior to chemical treatment. After 24 h of treatment with an irritant or sensitizer, 10 µl of WST-1 reagent was added and plates were further incubated up to 3 h at 37°C. […] Monolayer keratinocytes were exposed to DNCB (10 µM) and SDS (80µM) at 80% cell viability concentrations.
# Nrf2 dependent genes [1] = assay: Quantitative PCR of gene expression, monolayer primary keratinocytes; assay type: cell-based, human; settings: 4 h, mRNA
# Experimental: (§1) Total RNA was prepared using RNeasy mini kit (Qiagen) according to the manufacturer's protocol. RNA was quantified using a Nanodrop ND-1000 spectrophotometer. First- strand cDNA synthesis was derived from 1 ug of total RNA using the iscript cDNA synthesis kit (Biorad) according to the manufacturer's protocol. Primers were tested in normal KC cDNA. Stability of reference genes was analyzed with the GeNorm method (Vandesompele et al., 2002). Expression analysis was performed with the BioRad software (iQ5) and was based on the delta delta Ct method with the reference genes that were most stably expressed according to the GeNorm analysis.
# (§2) Expression levels of the following genes were measured: HMOX-1 (Hemeoxygenase-1), GCLM (Glutamate-cysteine ligase modifier subunit), TXNRD1 (Thioredoxin reductase 1), OSGIN-1 (oxidative stress induced growth inhibitor 1), B2M (Beta-2 microglobulin), GUSB (Glucuronidase beta) and TBP (TATA binding protein). Quantitative real-time PCR was determined by using the following primer sets: • 5'-[…]-'3 (HMOX-1), • 5'-[…]-'3 GCLM), • 5'-[…]-'3 (TXNRD1), • 5'- TGCTGCAGAGGAAGCTCAC-'3 (OSGIN1), • 5'-[…]-'3 (B2M), • 5'-[…]-'3 (GUSB), • 5'-[…]-'3 (TBP).
# (§3) Real-Time PCRs were performed in 10 µl reaction volumes using the MylQ system and SYBR Green PCR Master- mix (Biorad) according to the manufacturer's protocol. […]
# Nrf2 dependent genes [2] = assay: Quantitative PCR of gene expression, N/TERT monolayer cultures; assay type: cell-based, human; settings: 4 h, mRNA
# Experimental: as §1, §2
# Real-Time PCRs were performed in 10 µl reaction volumes using the MylQ system and SYBR Green PCR Master- mix (Biorad) according to the manufacturer's protocol.
# The PCR cycles were: 3 minutes at 95 °C to activate the polymerase, 40 cycles of 20 seconds at 95 °C and 40 seconds at 60 °C, followed by the generation of a melt curve.
# All qPCR values were averaged relative to the three different reference genes: B2M, GUSB, TBP. For each data point, PCRs were performed in duplicate and values represent means ± standard deviation.
# Nrf2 dependent genes [3] = assay: Quantitative PCR of gene expression, NEMs; assay type: cell-based, human; settings: 4 h, mRNA
# Experimental: Medium was refreshed every 2 days.
# as §1, §2, §3
# NEMs = assay: MTT cell viability assay, epidermal model; settings: topical exposure
# Experimental: The LEMs and the NEMs were constructed by seeding 200.000 cells on insert filters (12 wells plate, polyester membrane, Costar) in Dermalife K medium including lifefactors (Lifeline Cell Technology, Walkersville, MD) until full density was reached. […] Thereafter they were cultured in CNT medium (basal medium plus supplement kit, CellnTec, Bern, Switzerland). […] Medium was refreshed every 2 days. LEMs and NEMs were air-exposed for 12 days at 37 °C and 7.3% CO2 prior to analysis.
# Twelve days air-exposed LEMs or NEMs were covered with a 11 mm filter paper disc (Finn Chamber, Phoenix, USA). Chemicals with different doses were applied onto the filters and incubated for 24 h and thereafter washed away with PBS. LEMs or NEMs were then incubated with thiazolyl blue tetrazolium bromide (MTT), (Sigma). MTT stock of 5 mg/ml PBS (filter sterilized) was diluted to a final concentration of 1 mg/ml in colourless DMEM medium. MTT medium was added to the cell cultures and incubated for 3 h at 37°C. Viable cells were then allowed to reduce the tetrazolium dye to its insoluble formazan, which has a purple colour. Therefore, after 3 hours, the MTT was removed and washed away with PBS. After drying, the formazan was dissolved in 2ml of isopropanol overnight at room temperature. Absorbance was measured at 570 nm using a plate reader (TECAN infinite F200) in order to calculate the cell viability.
# [4] = skin sensitizing potency; cited from earlier work
# Nrf2 [5] = assay: Nuclear fractionation and Western blot, monolayer primary keratinocytes; assay type: cell-based, human
# From the text: (§4) Nuclear fractions of monolayer cultures and reconstructed epidermis were isolate using a Nuclear extract kit (Active motif, Carlsbad, CA) according to the manufacturer's protocol. Nuclear fractions were subjected to Western blot analysis.
# (§5) Monolayer cells were lysed in M-Per buffer (Thermo Scientific, Rockford, USA), reconstructed epidermis was cut in pieces and lysed in T-Per lysis buffer (Thermo Scientific, Rockford, USA) both supplemented with protease inhibitor cocktail EDTA-free and HALTTM phosphatase inhibitors (Thermo Scientific). Cell lysates were measured using the BCATM protein assay kit (Thermo Scientific). Equal amounts of proteins were separated by SDS-page. Proteins were transferred onto PVDF- transfer membranes (Thermo Scientific). […] After four times washing with PBST, proteins were detected by enhanced chemi-luminescence (Super signal West femto (Pierce Thermo Scientific, Rockford, USA) and visualized by exposure to X-ray film (Fujifilm Europe GmbH, Düsseldorf, Germany).
# (§6) Next we investigated whether Nrf2 expression could be stabilized by inhibiting the proteasome that is responsible for a constitutive degradation of Nrf2. […] Although the Nrf2 translocation was clearly visible, we used a second approach enabling quantification of the amount of translocated Nrf2. […]
# Nrf2 [6] = assay: Nuclear fractionation and Western blot, N/TERT monolayer cultures; assay type: cell-based, human
# From the text: as §4, §5, §6
# Nrf2 [7] = assay: Nrf2 nuclear translocation by immunohistochemical analysis, NEMs; assay type: cell-based, human; settings: NEMs 12 days air-exposed, 4 h treatment
smiles,measurement,setting,value
"O=[N+]([O-])c1ccc(Cl)c([N+](=O)[O-])c1 [DNCB, 2,4-dinitrochlorobenzene]",80% cell viability concentrations,Monolayer keratinocytes,10 µM
same,Expression of GCLM,Nrf2 dependent genes [1],"approx. 1,2 fold"
same,Expression of OSGIN-1,Nrf2 dependent genes [1],"approx. 1,2 fold"
same,Expression of GCLM,Nrf2 dependent genes [2],"approx. 1,2 fold"
same,Expression of OSGIN-1,Nrf2 dependent genes [2],"approx. 1,2 fold"
same,Expression of TXNRD-1,Nrf2 dependent genes [2],"approx. 1,2 fold"
same,Expression of GLCM,Nrf2 dependent genes [3],"approx. 3,2 fold"
same,Expression of OSGIN-1,Nrf2 dependent genes [3],approx. 2 fold
same,concentrations of 80 - 85% CV,NEMs,500 µM
"CC=Cc1ccc(O)c(OC)c1 [IsoEu, Isoeugenol]",Potency category,[4],moderate
same,concentrations of 80 - 85% CV,NEMs,15000 µM
CC(C)C[C@@H](C=O)NC(=O)[C@H](CC(C)C)NC(=O)[C@H](CC(C)C)NC(=O)OCc1ccccc1 [MG132] (Cbz-Leu-Leu-Leu-aldehyde),Nrf2 protein levels in nuclear lysates,Nrf2 [5],elevated levels of Nrf2
same,Nrf2 protein levels in nuclear lysates,Nrf2 [6],elevated levels of Nrf2
"Nc1ccc(N)cc1 [PPD, p-Phenylenediamine]",concentrations of 80 - 85% CV,NEMs,35000 µM
"CCCCCCCCCCCCOS(=O)(=O)[O-].[Na+] [SDS, Sodium Dodecyl Sulfate]",80% cell viability concentrations,Monolayer keratinocytes,80 µM
same,Nrf2 in the nuclei,Nrf2 [7],Nrf2 was only translocated to the nucleus after DNCB treatment
